30 molecules from patent US8569267B2, “Tetracyclic tetrahydrofuran derivatives containing cyclic amine side chain” (Janssen Pharmaceutica, NV, priority 2005, dated 2013) can be followed below.

The target of assay [1] is T1, human cloned 5-HT2C receptor, expressed in CHO cells (Homo sapiens, UniProt P28335).
T1 construct: expressed in transfected cells; host or cells: CHO cells
T1 sequence (P28335 33-458): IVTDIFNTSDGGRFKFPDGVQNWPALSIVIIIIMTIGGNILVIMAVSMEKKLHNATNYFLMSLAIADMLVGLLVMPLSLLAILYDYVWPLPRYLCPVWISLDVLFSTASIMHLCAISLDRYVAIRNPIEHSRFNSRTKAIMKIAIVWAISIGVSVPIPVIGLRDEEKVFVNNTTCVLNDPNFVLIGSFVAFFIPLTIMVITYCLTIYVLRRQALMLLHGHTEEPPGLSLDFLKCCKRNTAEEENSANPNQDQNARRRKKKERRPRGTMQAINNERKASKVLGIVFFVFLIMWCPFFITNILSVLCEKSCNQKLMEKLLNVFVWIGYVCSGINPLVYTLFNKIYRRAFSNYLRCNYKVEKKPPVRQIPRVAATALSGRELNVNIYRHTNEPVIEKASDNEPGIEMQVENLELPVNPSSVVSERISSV
In words: In vitro binding affinity for 5-HT2C receptor ([3H]mesulergine radioligand binding). As to conditions: human cloned 5-HT2C receptor; for IC50: read-out: 5-HT2C pIC50 (converted). The procedure:
In Vitro Binding Affinity for 5-HT2A and 5-HT2C Receptors
The interaction of the compounds of Formula (I) with 5-HT2A and 5-HT2C receptors was assessed in in vitro radioligand binding experiments. […] During the incubation, the radioligands bind to the receptor. When equilibrium of binding is reached, the receptor bound radioactivity is separated from the non-bound radioactivity, and the receptor bound activity is counted. The interaction of the test compounds with the receptors is assessed in competition binding experiments. Various concentrations of the test compound are added to the incubation mixture containing the tissue preparation and the radioligand. Binding of the radioligand will be inhibited by the test compound in proportion to its binding affinity and its concentration.

For assay [2], the target named is T2, NET (norepinephrine transporter) (Rattus norvegicus, UniProt Q63380).
T2 construct: Cortex from rat brain was collected and homogenised; from tissue; host or cells: rat brain cortex
T2 sequence (Q63380 1-617): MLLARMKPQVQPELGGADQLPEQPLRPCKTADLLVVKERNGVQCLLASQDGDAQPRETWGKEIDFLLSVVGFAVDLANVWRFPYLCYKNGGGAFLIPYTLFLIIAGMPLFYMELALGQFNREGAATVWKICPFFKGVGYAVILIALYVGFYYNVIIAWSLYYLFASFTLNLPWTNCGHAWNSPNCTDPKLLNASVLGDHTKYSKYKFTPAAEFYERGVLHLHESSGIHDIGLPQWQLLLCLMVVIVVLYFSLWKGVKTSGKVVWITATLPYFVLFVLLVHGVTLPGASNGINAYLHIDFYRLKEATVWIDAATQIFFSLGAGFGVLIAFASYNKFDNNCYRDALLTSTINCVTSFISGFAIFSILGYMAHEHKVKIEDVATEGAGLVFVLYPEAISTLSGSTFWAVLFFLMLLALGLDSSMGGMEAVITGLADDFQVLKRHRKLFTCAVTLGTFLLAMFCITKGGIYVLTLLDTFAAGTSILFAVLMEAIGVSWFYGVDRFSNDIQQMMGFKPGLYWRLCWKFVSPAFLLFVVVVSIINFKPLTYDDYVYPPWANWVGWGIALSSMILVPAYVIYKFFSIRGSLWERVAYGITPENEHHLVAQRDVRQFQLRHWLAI
In words: In vitro determination of NET reuptake inhibition ([3H]Nixosetine binding, rat brain cortex). The conditions noted are these: rat brain cortex; for IC50: read-out: NET pIC50 (converted). The procedure:
In Vitro Determination of NET Reuptake Inhibition
Cortex from rat brain was collected and homogenised using an Ultra-Turrax T25 and a Dual homogeniser in ice-cold homogenising buffer containing Tris, NaCl and KCl (50 mM, 120 mM and 5 mM, respectively, pH 7.4) prior to dilution to an appropriate protein concentration optimised for specific and non-specific binding. […] Membrane-bound activity was detected by filtration through a Packard Filtermate harvester onto GF/B Unifilterplates, washed with ice-cold Tris-HCl buffer, containing NaCl and KCl (50 mM, 120 mM and 4 mM; pH 7.4; 6×0.5 ml). Filters were allowed to dry for 24 h before adding scintillation fluid. Scintillation fluid was allowed to saturate filters for 24 h before counting in a Topcount scintillation counter. Percentage specific bound and competition binding curves were calculated using S-Plus software (Insightful).

The target in assay [3] is T3, human Dopamine D2L receptor (Homo sapiens, UniProt P14416).
T3 construct: expressed in transfected cells; host or cells: CHO cells
T3 sequence (P14416 whole entry): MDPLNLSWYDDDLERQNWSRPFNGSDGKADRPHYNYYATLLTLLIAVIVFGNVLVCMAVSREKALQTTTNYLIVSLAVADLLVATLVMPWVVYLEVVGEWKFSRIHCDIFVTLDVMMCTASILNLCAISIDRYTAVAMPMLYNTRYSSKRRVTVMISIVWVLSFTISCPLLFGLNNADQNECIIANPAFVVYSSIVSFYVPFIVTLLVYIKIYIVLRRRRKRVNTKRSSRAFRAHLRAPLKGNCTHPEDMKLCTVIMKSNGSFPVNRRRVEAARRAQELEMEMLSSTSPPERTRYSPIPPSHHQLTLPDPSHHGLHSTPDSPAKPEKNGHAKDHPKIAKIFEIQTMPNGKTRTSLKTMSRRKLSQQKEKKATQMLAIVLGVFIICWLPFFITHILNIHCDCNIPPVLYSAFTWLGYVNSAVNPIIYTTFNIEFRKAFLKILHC
Briefly: In vitro binding affinity for human D2L receptor ([3H]Spiperone binding). The conditions noted are these: human D2L receptor-transfected CHO cell membranes; for IC50: read-out: D2L pIC50 (converted). The method, then: In Vitro Binding Affinity for Human D2L Receptor
Frozen membranes of human Dopamine D2L receptor-transfected CHO cells were thawed, briefly homogenised using an Ultra-Turrax T25 homogeniser and diluted in Tris-HCl assay buffer containing NaCl, CaCl2, MgCl2, KCl (50, 120, 2, 1, and 5 mM respectively, adjusted to pH 7.7 with HCl) to an appropriate protein concentration optimised for specific and non-specific binding. Radioligand [^3H]Spiperone (NEN, specific activity ˜70 Ci/mmol) was diluted in assay buffer at a concentration of 2 nmol/L. Prepared radioligand (50 μl), along with 50 μl of either the 10% DMSO control, Butaclamol (10^−6 mol/l final concentration), or compound of interest, was then incubated (30 min, 37° C.) with 400 μl of the prepared membrane solution. Membrane-bound activity was filtered through a Packard Filtermate harvester onto GF/B Unifilterplates and washed with ice-cold Tris-HCl buffer (50 mM; pH 7.7; 6×0.5 ml). Filters were allowed to dry before adding scintillation fluid and counting in a Topcount scintillation counter. Percentage specific bound and competition binding curves were calculated using S-Plus software (Insightful).

A value given as a limit tells only on which side of the number the result lay.

Turning to `CC1c2ccccc2C2CC(CN3CCC(O)C3)OC2c2cc(F)ccc21.O=C(O)C(=O)O` (mixture of isomers) [Compound 45], in assay [1], the “5-HT2C pIC50” value is 8.66. Besides, in assay [2], the “NET pIC50” value is listed as 7.33. The “D2L pIC50” value in assay [3] came to 6.46.

For the molecule `CC1c2ccccc2C2CC(CN3CCC(O)C3)OC2c2cc(F)ccc21` (mixture of isomers) [Compound 46], the IC50 in assay [1] was 1.1 nM; in assay [2], 2400 nM; in assay [3], 17.4 nM.

For the molecule `Fc1ccc2c(c1)C1OC(CN3CCOC(CCOc4ccccc4)C3)CC1c1ccccc1C2` (mixture of isomers) [Compound 131], the IC50 in assay [1] was 30.9 nM; in assay [2], 2400 nM; in assay [3], 19.5 nM.

Take `OCCC1CCCN(CC2CC3c4ccccc4Cc4ccc(F)cc4C3O2)C1` (mixture of isomers) [Compound 152]: the values for the IC50 in assay [1], in assay [2] and in assay [3] were 4.17 nM, 3800 nM and 17 nM, respectively.

Regarding `O=C(NC1CCN(CC2CC3c4ccccc4Cc4ccc(F)cc4C3O2)CC1)NC1CC1c1ccccc1` (mixture of isomers) [Compound 246], the results for the IC50 in assay [1], in assay [2] and in assay [3] were 5.75 nM, 1350 nM and 11.7 nM, respectively.

Take `N#Cc1ccc2c(c1)C1CC(CN3CCC(O)C3)OC1c1cc(F)ccc1S2.O=C(O)C(=O)O` (mixture of isomers) [Compound 259]: in assay [1], the “5-HT2C pIC50” value was 7.64. The “NET pIC50” value in assay [2] is recorded as 5.38. Besides, the “D2L pIC50” value in assay [3] turned out to be 6.59.

`OC1CCCN(CC2CC3c4ccccc4Cc4ccc(F)cc4C3O2)C1` (racemic) [Compound 141]: the values for the IC50 in assay [1], in assay [2] and in assay [3] were 1.15 nM, 4790 nM and 16.6 nM, respectively.

Take `OC1CCCN(CC2CC3c4ccccc4Cc4ccc(F)cc4C3O2)C1` (single isomer, unassigned) [Compound 142]: the IC50 in assay [1] was 3.16 nM; in assay [2], 2400 nM; in assay [3], 14.5 nM.

As to `OC1CCCN(CC2CC3c4ccccc4Cc4ccc(F)cc4C3O2)C1` (single isomer, unassigned) [Compound 143], the IC50 in assay [1] was 1.82 nM; in assay [2], more than 10000 nM; in assay [3] it was 12.6 nM.

On to `O=C(O)C(=O)O.O[C@@H]1CCN(C[C@H]2C[C@@H]3c4ccccc4Cc4ccc(F)cc4[C@@H]3O2)C1` [Compound 2], for which, in assay [1], the “5-HT2C pIC50” value is reported as 9.58. Further, in assay [2], the “NET pIC50” value worked out at 6.34. In assay [3], the “D2L pIC50” value is on record as 7.86.

As for `O=C(O)C(=O)O.O[C@H]1CCN(C[C@H]2C[C@@H]3c4ccccc4Cc4ccc(F)cc4[C@@H]3O2)C1` [Compound 3], in assay [1], the “5-HT2C pIC50” value came out at 9.57. Further, the “NET pIC50” value in assay [2] is recorded as 5.45. For the same molecule, the “D2L pIC50” value in assay [3] was 8.01.

Regarding `COc1ccc(NC(=O)CC2CN(C[C@H]3C[C@@H]4c5ccccc5Cc5ccc(F)cc5[C@@H]4O3)CCO2)cc1` (stereo partly drawn) [Compound 139], the IC50 in assay [1] was 24.5 nM; in assay [2], more than 10000 nM; in assay [3], 56.2 nM.

Take `OC1CCN(C[C@H]2C[C@@H]3c4ccccc4Cc4ccc(F)cc4[C@@H]3O2)CC1` [Compound 144, [2R-(2α, 3aα, 12bβ)]1-(11-fluoro-3,3a,8,12b-tetrahydro-2H-1-oxa-dibenzo[e,h]azulen-2-ylmethyl)-piperidin-4-ol.oxalate (1:1)]: the IC50 in assay [1] is 0.692 nM; in assay [2], more than 10000 nM; in assay [3] it was 4.79 nM.

In the case of `OCC1CCN(CC2CC3c4ccccc4Cc4ccc(F)cc4C3O2)CC1` (stereo not drawn) [Compound 151], the IC50 in assay [1] is 1.23 nM; in assay [2], more than 10000 nM; in assay [3], 1.35 nM.

Take `O=C(O)C1CCN(C[C@H]2C[C@@H]3c4ccccc4Cc4ccc(F)cc4[C@@H]3O2)CC1` [Compound 157]: the IC50 in assay [1] is 7.24 nM; in assay [2], more than 10000 nM; in assay [3], 132 nM.

On to `CCOC(=O)C1CCCN(C[C@H]2C[C@@H]3c4ccccc4Cc4ccc(F)cc4[C@@H]3O2)C1` (stereo partly drawn) [Compound 160], for which the IC50 in assay [1] was 2.88 nM; in assay [2] it was more than 10000 nM; in assay [3] it was 14.5 nM.

Consider `CCOC(=O)C1CCN(C[C@H]2C[C@@H]3c4ccccc4Cc4ccc(F)cc4[C@@H]3O2)CC1` [Compound 162], for which the IC50 in assay [1] was 1.02 nM; in assay [2], more than 10000 nM; in assay [3], 3.63 nM.

In the case of `CCOC(=O)CC1CCN(CC2CC3c4ccccc4Cc4ccc(F)cc4C3O2)CC1` (stereo not drawn) [Compound 164, [2R-(2α, 3aα, 12bβ)][1-(11-fluoro-3,3a,8,12b-tetrahydro-2H-1-oxa-dibenzo[e,h]-azulen-2-ylmethyl)-piperidin-4-yl]-acetic acid ethyl ester.oxalate (1:1)], the IC50 is 7.59 nM in assay [1], 5500 nM in assay [2] and 2.88 nM in assay [3].

Turning to `CC(=O)OC1CCN(C[C@H]2C[C@@H]3c4ccccc4Cc4ccc(F)cc4[C@@H]3O2)CC1` [Compound 166], the IC50 was less than 1 nM in assay [1], 7240 nM in assay [2] and 2.09 nM in assay [3].

As to `O=C(NCc1cccc(C(F)(F)F)c1)C1CCN(CC2CC3c4ccccc4Cc4ccc(F)cc4C3O2)CC1` (stereo not drawn) [Compound 182], the values for the IC50 in assay [1], in assay [2] and in assay [3] were 8.32 nM, 6920 nM and 31.6 nM, respectively.

`CC(C)c1ccccc1NC(=O)C1CCN(CC2CC3c4ccccc4Cc4ccc(F)cc4C3O2)CC1` (stereo not drawn) [Compound 185]: the IC50 in assay [1] is 10.7 nM; in assay [2], more than 10000 nM; in assay [3], 15.5 nM.

In the case of `O=C(Nc1ccccc1F)C1CCN(CC2CC3c4ccccc4Cc4ccc(F)cc4C3O2)CC1` (stereo not drawn) [Compound 189], the IC50 in assay [1] is 1.17 nM; in assay [2], more than 10000 nM; in assay [3] it was 7.76 nM.

Regarding `O=C(NCc1ccco1)C1CCN(CC2CC3c4ccccc4Cc4ccc(F)cc4C3O2)CC1` (stereo not drawn) [Compound 194], the IC50 was 1.45 nM in assay [1], 9120 nM in assay [2] and 5.01 nM in assay [3].

Turning to `O=C(NCc1cccs1)C1CCN(CC2CC3c4ccccc4Cc4ccc(F)cc4C3O2)CC1` (stereo not drawn) [Compound 195], the IC50 was 1.62 nM in assay [1], 7760 nM in assay [2] and 5.5 nM in assay [3].

In the case of `O=C(NCc1cccc(I)c1)C1CCN(CC2CC3c4ccccc4Cc4ccc(F)cc4C3O2)CC1` (stereo not drawn) [Compound 196], the IC50 in assay [1] was 5.01 nM; in assay [2], 2750 nM; in assay [3], 14.1 nM.

With `O=C(NCc1ccccn1)C1CCN(CC2CC3c4ccccc4Cc4ccc(F)cc4C3O2)CC1` (stereo not drawn) [Compound 197], the IC50 in assay [1] was 1 nM; in assay [2] it was 8510 nM; in assay [3], 4.57 nM.

With `CC(C)(C)OC(=O)N1CCN(C(=O)C2CCN(CC3CC4c5ccccc5Cc5ccc(F)cc5C4O3)CC2)CC1` (stereo not drawn) [Compound 206], the IC50 in assay [1] is 9.33 nM; in assay [2] it was 1700 nM; in assay [3], 40.7 nM.

For the molecule `O=C(C1CCN(CC2CC3c4ccccc4Cc4ccc(F)cc4C3O2)CC1)N1CC=C(c2ccccc2)CC1` (stereo not drawn) [Compound 207], the figures for the IC50 in assay [1], in assay [2] and in assay [3] were 6.76 nM, 6170 nM and 25.7 nM, respectively.

`CC(C)(C)COC(=O)NC1CCN(CC2CC3c4ccccc4Cc4ccc(F)cc4C3O2)CC1` (stereo not drawn) [Compound 215]: the results for the IC50 in assay [2] and in assay [3] were 7410 nM and 15.8 nM, respectively.

Turning to `O=C(O)C(=O)O.OC1CCN(CC2CC3c4ccccc4Oc4ccc(F)cc4C3O2)CC1` (stereo not drawn) [Compound 283], in assay [3], the “D2L pIC50” value stood at 6.70.
